These results are taken from patent publication US12435061B2 (priority 2020, dated 2025).

Data set [1] in a line: Aqueous solubility assay in Normal Ringer Solution. The conditions noted are these: Normal Ringer Solution; for solubility at 40 min: saline or isotonic, kinetic from dmso stock. As to the method: Following vortex and incubation for a sufficient time (e.g. 40 minutes at room temperature), solutions were filtered, quenched with acetonitrile, and analyzed by Liquid Chromotography. Solubility Limits were determined by comparison to a standard curve.

The next data set has as its target hTRPV3 (Homo sapiens (Human), UniProt Q8NET8). The experiment in a line: Whole-cell patch clamp, hTRPV3 Phase 1 / Phase 2 currents. It counts as cell-based. The procedure, abridged: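 Currents are activated by 20 μM 2-APB or by perfusate at 28 °C or warmer, in Ringer's solution, and quantified at ±80 mV.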
The nature of data set [2]: Metabolic Stability assay, rat liver microsomes. The data set is classed as in vitro ADME. As to the method:
Metabolic Stability assay: The metabolic stability was determined by adding compound dissolved in DMSO to human or rat, liver microsomes. Briefly, assays were run with a starting concentration of 1 μM test article. The reaction was started by addition of NADPH regeneration components at 37° C. at which time an aliquot was immediately quenched in ice-cold acetonitrile/MeOH/H2O solution. Reaction mixture was incubated at 37° C. on a shaker, and additional aliquots were taken at 7, 15, 30 and 60 minutes. Following quench and centrifugation, samples were analyzed on HPLC/MS/MS.
(Liver microsomes are a subcellular fraction often used to study metabolism.)

Setting [3] is: Phase 1 current, inward, whole-cell patch clamp, read-out: hTRPV3 Patch P1 Inwd.
[4] abbreviates: Phase 1 current, read-out: hTRPV3 (nM) (Phase 1).
The mark [5] stands for this setting: Phase 2 current, inward, whole-cell patch clamp, read-out: hTRPV3 Patch P2 Inwd.
[6] abbreviates: Phase 2 current, read-out: hTRPV3 (nM) (Phase 2).
[7] abbreviates: Phase 1 current, human TRPV3, read-out: hTRPV3 (nM) Phase 1.

≈ marks a conversion by molar mass, not a printed value. Read-outs that look alike come from different tables or passages of the source.

hTRPV3, sequence (Q8NET8 whole entry): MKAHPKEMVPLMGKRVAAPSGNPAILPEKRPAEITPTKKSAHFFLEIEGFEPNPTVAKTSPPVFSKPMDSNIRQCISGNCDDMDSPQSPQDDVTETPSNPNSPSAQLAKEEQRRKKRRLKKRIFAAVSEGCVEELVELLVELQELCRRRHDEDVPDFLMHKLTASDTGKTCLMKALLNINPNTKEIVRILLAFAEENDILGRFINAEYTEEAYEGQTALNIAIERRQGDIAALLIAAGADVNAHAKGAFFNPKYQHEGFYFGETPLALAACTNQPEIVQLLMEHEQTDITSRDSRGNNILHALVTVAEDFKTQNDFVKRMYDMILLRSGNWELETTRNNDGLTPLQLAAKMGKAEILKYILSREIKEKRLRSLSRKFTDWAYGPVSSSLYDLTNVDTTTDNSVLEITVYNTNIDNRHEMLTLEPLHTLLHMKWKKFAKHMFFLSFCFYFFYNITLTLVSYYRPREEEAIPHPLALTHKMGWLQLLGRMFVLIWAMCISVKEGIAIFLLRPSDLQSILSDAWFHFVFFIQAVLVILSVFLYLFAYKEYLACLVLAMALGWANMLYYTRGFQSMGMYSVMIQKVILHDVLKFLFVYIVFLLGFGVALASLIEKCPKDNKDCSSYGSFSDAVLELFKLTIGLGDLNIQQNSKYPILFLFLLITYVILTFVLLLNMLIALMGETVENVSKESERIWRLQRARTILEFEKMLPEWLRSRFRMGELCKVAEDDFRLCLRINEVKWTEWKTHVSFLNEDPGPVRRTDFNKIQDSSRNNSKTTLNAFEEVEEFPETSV

Consider `COc1ccccc1-c1ccc(N2CC[C@H](Oc3ccc(C(F)(F)F)cn3)C2)c(CO)c1` [Compound 1-151, (S)-(2′-methoxy-4-(3-(5-(trifluoromethyl)pyridin-2-yloxy)pyrrolidin-1-yl)biphenyl-3-yl)methanol], for which the “Solubility Ringer (nM)” value in data set [1] (room temperature) is given as “BLQ”. Further, the IC50 on hTRPV3 (setting [3]) was 100 to 1000 nM; at hTRPV3 (setting [4]) it was 125 nM. The half-life at 1 μM in data set [2] (read-out: LM T1/2 (min) (rat)) stood at 38.9 min.

Consider `CCc1ccccc1Oc1ccc(N2CC[C@H](Oc3ncccc3C)C2)c(CO)c1` [Compound 1-268, (S)-(5-(2-ethylphenoxy)-2-(3-(3-methylpyridin-2-yloxy)pyrrolidin-1-yl)phenyl)methanol], for which the solubility – broadly, the dissolved amount per volume that the medium holds – at 40 min in data set [1] was found to be 0.25 µM (≈ 0.101 µg/mL). For the same compound, the IC50 was under 10 nM at hTRPV3 (setting [3]), 2.8 nM on hTRPV3 (setting [4]), under 10 nM on hTRPV3 (setting [5]) and about 2.54 nM at hTRPV3 (setting [6]). Moreover, in data set [2] (read-out: LM T1/2 (min) (rat)), the half-life at 1 μM stood at 22 min.

On to `CCc1ccccc1Oc1ccc(N2CC[C@H](Oc3ccccn3)C2)c(CO)c1` [Compound 1-275], for which the solubility at 40 min in data set [1] was about 1 µM (≈ 0.39 µg/mL). For the same compound, the IC50 was 10 to 100 nM on hTRPV3 (setting [3]) and 24.8 nM at hTRPV3 (setting [4]). The half-life at 1 μM in data set [2] (read-out: LM T1/2 (min) (rat)) amounted to 22.8 min.

`Cc1ccccc1Oc1ccc(N2CC[C@H](Nc3ncccc3Cl)C2)c(CO)c1` [Compound 1-383, (S)-(2-(3-(3-chloropyridin-2-ylamino)pyrrolidin-1-yl)-5-(o-tolyloxy)phenyl)methanol]: the solubility at 40 min in data set [1] was about 0.35 µM (≈ 0.143 µg/mL). Further, the IC50 is 10 to 100 nM at hTRPV3 (setting [3]) and 12.6 nM at hTRPV3 (setting [4]). Also, in data set [2] (read-out: LM T1/2 (min) (rat)), the half-life at 1 μM turned out to be 31.4 min.

As for `Cc1ccccc1C(=O)c1ccc(N2CC[C@H](Oc3ncccc3Cl)C2)c(CO)c1` [Compound 1-246, (S)-(4-(3-(3-chloropyridin-2-yloxy)pyrrolidin-1-yl)-3-(hydroxymethyl)phenyl)(o-tolyl)methanone], the solubility at 40 min in data set [1] is about 1.87 µM (≈ 0.791 µg/mL). The IC50 on hTRPV3 (setting [3]) is 100 to 1000 nM; on hTRPV3 (setting [4]), 136 nM; at hTRPV3 (setting [5]) it was 100 to 1000 nM; on hTRPV3 (setting [6]) it was 136 nM. The half-life at 1 μM in data set [2] (read-out: LM T1/2 (min) (rat)) was 7.36 min.

As for `Oc1cc(-c2ccccc2Cl)ccc1N1CC[C@@H](Oc2ccc(C(F)(F)F)cn2)C1` [Compound 1-113, (R)-2′-chloro-4-(3-(5-(trifluoromethyl)pyridin-2-yloxy)pyrrolidin-1-yl)biphenyl-3-ol], in data set [1] (room temperature), the “Solubility Ringer (nM)” value is on record as “BLQ”. Also, the IC50 at hTRPV3 (setting [3]) is 100 to 1000 nM; on hTRPV3 (setting [4]), about 97.5 nM; at hTRPV3 (setting [5]), 100 to 1000 nM; on hTRPV3 (setting [6]), 109 nM. Besides, the half-life at 1 μM in data set [2] (read-out: LM T1/2 (min) (rat)) amounted to 33.5 min.

Take `CCc1ccccc1Oc1ccc(N2CC[C@H](Oc3ncccc3F)C2)c(CO)c1` [Compound 1-267, (S)-(5-(2-ethylphenoxy)-2-(3-(3-fluoropyridin-2-yloxy)pyrrolidin-1-yl)phenyl)methanol]: the solubility at 40 min in data set [1] is about 0.38 µM (≈ 0.155 µg/mL). Further, the results for the IC50 at hTRPV3 (setting [3]) and on hTRPV3 (setting [4]) were 10 to 100 nM and 19.1 nM, respectively. Moreover, the half-life at 1 μM in data set [2] (read-out: LM T1/2 (min) (rat)) is 30.6 min.

`OCCc1cc(Oc2ccccc2F)ccc1N1CC[C@H](Oc2ncccc2F)C1` [Compound 1-313, (S)-2-(5-(2-fluorophenoxy)-2-(3-(3-fluoropyridin-2-yloxy)pyrrolidin-1-yl)phenyl)ethanol] showed a solubility at 40 min in data set [1] of about 2 µM (≈ 0.825 µg/mL). In addition, the IC50 at hTRPV3 (setting [3]) was 10 to 100 nM; at hTRPV3 (setting [4]) it was 72.5 nM; on hTRPV3 (setting [5]), 10 to 100 nM; on hTRPV3 (setting [6]), 71.3 nM. The half-life at 1 μM in data set [2] (read-out: LM T1/2 (min) (rat)) is 9.29 min.

In turn, `CCc1c(Cl)ncnc1Oc1ccc(N2CC[C@H](Oc3ncccc3Cl)C2)c(CO)c1` [Compound 1-358, (S)-(5-(6-chloro-5-ethylpyrimidin-4-yloxy)-2-(3-(3-chloropyridin-2-yloxy)pyrrolidin-1-yl)phenyl)methanol] came in with a solubility at 40 min in data set [1] of about 2.1 µM (≈ 0.969 µg/mL). Moreover, the IC50 at hTRPV3 (setting [3]) is 100 to 1000 nM; at hTRPV3 (setting [4]), 174 nM. Further, the half-life at 1 μM in data set [2] (read-out: LM T1/2 (min) (rat)) came to 16.7 min.

For the compound `OCc1cc(C(O)c2ccccc2Cl)ccc1N1CC[C@H](Oc2ncccc2F)C1` (stereo partly drawn) [Compound 1-264, (2-chlorophenyl)(4-((S)-3-(3-fluoropyridin-2-yloxy)pyrrolidin-1-yl)-3-(hydroxymethyl)phenyl)methanol], the solubility at 40 min in data set [1] was over 13.2 µM. The IC50 at hTRPV3 (setting [3]) is 10 to 100 nM; at hTRPV3 (setting [4]) it was 54.1 nM; on hTRPV3 (setting [5]), 10 to 100 nM; at hTRPV3 (setting [6]) it was 79.3 nM. Further, in data set [2] (read-out: LM T1/2 (min) (rat)), the half-life at 1 μM was found to be 19.4 min.

As for `CCc1ccccc1-c1ccc(C2CCN(C(=O)c3ccc(Cl)cn3)C2)c(CO)c1` (stereo not drawn) [Compound 2-51, (5-chloropyridin-2-yl)(3-(2′-ethyl-3-(hydroxymethyl)biphenyl-4-yl)pyrrolidin-1-yl) methanone], the solubility at 40 min in data set [1] was about 5.3 µM (≈ 2.23 µg/mL). Moreover, the IC50 is 7.37 nM on hTRPV3 (setting [7]) and under 10 nM on hTRPV3 (setting [3]). For the same compound, the half-life at 1 μM in data set [2] (read-out: LM T1/2 (min) rat) was found to be 14.4 min.

`CCc1ccccc1C(=O)c1ccc(N2CC[C@H](Oc3ncccc3Cl)C2)c(CO)c1` [Compound 1-251, (S)-(4-(3-(3-chloropyridin-2-yloxy)pyrrolidin-1-yl)-3-(hydroxymethyl)phenyl)(2-ethylphenyl)methanone]: the “Solubility Ringer” value in data set [1] (room temperature) is over 3.6 µM. Also, the IC50 at hTRPV3 (setting [3]) is 10 to 100 nM; on hTRPV3 (setting [4]), 102 nM. Besides, in data set [2] (1 μM), the “LM T1/2 (min) (rat)” value is on record as 6.25 (rat) min.

`COCc1ccccc1-c1ccc(N2CC[C@H](Oc3ccc(C(F)(F)F)cn3)C2)c(CO)c1` [Compound 1-160, (S)-(2′-(methoxymethyl)-4-(3-(5-(trifluoromethyl)pyridin-2-yloxy)pyrrolidin-1-yl)biphenyl-3-yl)methanol] displayed a solubility at 40 min in data set [1] of about 0.4 µM (≈ 0.183 µg/mL). The IC50 at hTRPV3 (setting [3]) is 10 to 100 nM; on hTRPV3 (setting [4]), 71.6 nM; on hTRPV3 (setting [5]), 100 to 1000 nM; on hTRPV3 (setting [6]), 106 nM. In addition, the half-life at 1 μM in data set [2] (read-out: LM T1/2 (min) (rat)) was 19.1 min.

As to `CC(C)c1ccccc1Oc1ccc(C2CCN(C(=O)c3ccc(Cl)cn3)C2)c(CO)c1` (stereo not drawn) [Compound 2-17, (5-chloropyridin-2-yl)(3-(2-(hydroxymethyl)-4-(2-isopropylphenoxy)phenyl)pyrrolidin-1-yl)methanone], the IC50 on hTRPV3 (setting [7]) was 57.4 nM; on hTRPV3 (setting [3]), 10 to 100 nM. The half-life at 1 μM in data set [2] (read-out: LM T1/2 (min) rat) was determined as 7.93 min.

Consider `CC(C)c1ccccc1-c1ccc(C2CCN(C(=O)c3ncccc3Cl)C2)c(CO)c1` (stereo not drawn) [Compound 2-36], for which the IC50 was 39.3 nM on hTRPV3 (setting [7]) and 10 to 100 nM on hTRPV3 (setting [3]). For the same compound, in data set [2] (read-out: LM T1/2 (min) rat), the half-life at 1 μM amounted to 11.2 min.

As for `CCc1ccccc1-c1ccc(C2CCN(C(=O)c3ccc(F)cn3)C2)c(C(N)=O)c1` (stereo not drawn) [Compound 2-34, 2′-ethyl-4-(1-(5-fluoropicolinoyl)pyrrolidin-3-yl)biphenyl-3-carboxamide], the figures for the IC50 at hTRPV3 (setting [7]) and at hTRPV3 (setting [3]) were 337 nM and 100 to 1000 nM, respectively. Besides, in data set [2] (read-out: LM T1/2 (min) rat), the half-life at 1 μM amounted to 26.4 min.

In the case of `O=C(c1cccc(Cl)n1)N1CCC(c2ccc(-c3ccccc3C3CC3)cc2CO)C1` (stereo not drawn) [Compound 2-57, (6-chloropyridin-2-yl)(3-(2′-cyclopropyl-3-(hydroxymethyl)biphenyl-4-yl)pyrrolidin-1-yl)methanone], the IC50 at hTRPV3 (setting [7]) is 7.34 nM; on hTRPV3 (setting [3]) it was under 10 nM. The half-life at 1 μM in data set [2] (read-out: LM T1/2 (min) rat) came to 32.3 min.

Take `Cc1ccccc1C(O)c1ccc(N2CC[C@H](Oc3ncccc3F)C2)c(CO)c1` (stereo partly drawn) [Compound 1-231, (4-((S)-3-(3-fluoropyridin-2-yloxy)pyrrolidin-1-yl)-3-(hydroxymethyl)phenyl)(o-tolyl)methanol]: the solubility at 40 min in data set [1] is over 26.8 µM. Further, the half-life at 1 μM in data set [2] (read-out: LM T1/2 (min) (rat)) turned out to be 16.3 min.
